Values quoted from earlier work as cited in patent US20060165788A1, “Lercanidipine pH dependent pulsatile release compositions” (priority 2004, published 2006).

What was measured:
[1] = for time to maximum concentration (Tmax): form (I) and form (II) compared with each other
Caco-2 cell = Caco-2 cell apparatus
[2] = not given; remark: listed apart in the source

SMILES	time to maximum concentration (Tmax) [1]	bioavailability ([1]; form (II) compared to Form (I))	plasma concentration (AUCo-t) ([1]; form (II) compared to Form (I))	solubility at pH 5	permeability, Paap (Caco-2 cell) [×10⁻⁶ cm/s]	increase of amount of lercanidipine absorbed with simultaneous intake of food ([2]; in vivo)	presystemic first pass elimination ([2]; in vivo)	peak plasma level Tmax ([2]; oral administration, immediate release form) [h]
COC(=O)C1=C(C)NC(C)=C(C(=O)OC(C)(C)CN(C)CCC(c2ccccc2)c2ccccc2)C1c1cccc([N+](=O)[O-])c1 (stereo not drawn) [form (I)]	shorter time to maximum concentration	–	–	–	–	–	–	–
COC(=O)C1=C(C)NC(C)=C(C(=O)OC(C)(C)CN(C)CCC(c2ccccc2)c2ccccc2)C1c1cccc([N+](=O)[O-])c1 (stereo not drawn) [form (II)]	delayed time of maximum concentration	higher bioavailability	higher plasma concentration	–	–	–	–	–
COC(=O)C1=C(C)NC(C)=C(C(=O)OC(C)(C)CN(C)CCC(c2ccccc2)c2ccccc2)C1c1cccc([N+](=O)[O-])c1.Cl (stereo not drawn) [Lercanidipine, methyl 1,1,N-trimethyl-N-(3,3-diphenylpropyl)-2-aminoethyl 1,4-dihydro-2,6-dimethyl-4-(3-nitrophenyl)pyridine-3,5-dicarboxylate]	–	–	–	less than 20 μg/ml	0.05	between three and four times	extensive	1 to 3
